Test results: patent publication US20250092031A1, “RIPK3 INHIBITORS AND METHODS OF USE” (Momentum Therapeutics, Inc., priority 2023, published 2025)

Legend:
RIPK3 = target: T1, RIPK3 (Homo sapiens, UniProt Q9Y572); assay: RIPK3 kinase assay (radiometric HotSpot, Reaction Biology Corporation); format: biochemical
T1 construct: purchased Reaction Biology Corporation (RBC), Malvern, USA (contract assay service)
Experimental: The assays were performed in Reaction Biology Corporation (RBC), Malvern, USA. Compounds were diluted with DMSO to a final stock concentration of 10 mM and then were tested in a 10-dose IC50 mode with a 3-fold serial dilution starting at […]. All the reactions were carried out at 10 μM ATP and MBP 20 μM as substrates. RIPK3 activity was determined using radiometric HotSpot™ kinase assay protocol and IC50 values were calculated use GraphPad Prism software.

Human HT-29 cells = assay: Necroptosis inhibition assay in HT-29 cells (hTNFα + zVAD + SMAC mimetic, Sytox Green/Hoechst); format: cell-based; details: 10 ng/ml hTNFα, 20 μM zVAD and 100 nM SMAC mimetic, 6 hours, Sytox/Hoechst positive cells, read-out: HT29 necroptosis inhibition IC50
Method in brief: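 Cells stimulated 48 h after seeding with 10 ng/ml hTNFα, 20 μM zVAD and 100 nM SMAC mimetic plus compound, 6 h at 37 °C. Sytox Green and Hoechst positive cells counted by imaging; inhibition scaled between DMSO-treated (100%) and stimulated-only (0%) wells, IC50 by curve fitting.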

Murine L929 cells = assay: Necroptosis inhibition assay in L929 cells (mTNFα + zVAD, Sytox Green); format: cell-based; details: Mus musculus, 10 ng/ml mTNFα and 20 μM zVAD, 6 hours, Sytox Green fluorescence
Method in brief: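 Murine L929 cells, treated 48 h after seeding with 10 ng/ml mTNFα plus 20 μM zVAD and compound ([…]), 6 h at 37° C. Necroptosis read by Sytox Green fluorescence (500ex/530em), scaled between 0.1% DMSO and TNFα+zVAD wells; IC50 from inhibition curves.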

T1 sequence (Q9Y572 whole entry): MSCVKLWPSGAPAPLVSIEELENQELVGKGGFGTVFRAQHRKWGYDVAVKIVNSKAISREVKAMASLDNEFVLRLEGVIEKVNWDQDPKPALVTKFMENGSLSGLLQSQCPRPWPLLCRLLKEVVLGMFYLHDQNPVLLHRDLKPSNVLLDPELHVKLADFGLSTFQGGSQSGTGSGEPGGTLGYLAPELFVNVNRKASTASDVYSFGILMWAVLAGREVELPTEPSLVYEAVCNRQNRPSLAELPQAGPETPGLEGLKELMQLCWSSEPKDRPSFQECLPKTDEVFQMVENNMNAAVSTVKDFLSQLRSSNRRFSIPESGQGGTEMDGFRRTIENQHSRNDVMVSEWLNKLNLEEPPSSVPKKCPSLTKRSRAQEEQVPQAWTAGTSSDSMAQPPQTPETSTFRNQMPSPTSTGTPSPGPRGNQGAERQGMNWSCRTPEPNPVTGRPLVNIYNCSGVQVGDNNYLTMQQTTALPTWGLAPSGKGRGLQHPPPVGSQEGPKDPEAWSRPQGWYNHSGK

SMILES | IC50 (RIPK3) | IC50 (Human HT-29 cells) | IC50 (Murine L929 cells)
Fc1cc(CN2CC3(CCOCC3)C2)ccc1-c1ccc2nccc(Nc3ccc4scnc4c3)c2c1 [Compound 51, N-(6-(4-(7-oxa-2-azaspiro[3.5]nonan-2-ylmethyl)-2-fluorophenyl)quinolin-4-yl)benzo[d]thiazol-5-amine] | 1.88 nM | 1200 nM | 832 nM
O=C(c1ccc(-c2ccc3nccc(Nc4ccc5scnc5c4)c3c2)c(F)c1)N1CCNCC1 [Compound 249, (4-(4-(benzo[d]thiazol-5-ylamino)quinolin-6-yl)-3-fluorophenyl)(piperazin-1-yl)methanone] | 1.75 nM | 67.9 nM | 1260 nM
O=C1CN(C(=O)c2ccc(-c3ccc4c(Nc5ccc6scnc6c5)ccnc4c3)c(F)c2)CCN1 [Compound 276, 4-(4-(4-(benzo[d]thiazol-5-ylamino)quinolin-7-yl)-3-fluorobenzoyl)piperazin-2-one] | 6.89 nM | 538 nM | 553 nM
O=C(c1ccc(-c2ccc3nccc(Nc4ccc5scnc5c4)c3c2)c(F)c1)N1CC2(CNC2)C1 [Compound 285, (4-(4-(benzo[d]thiazol-5-ylamino)quinolin-6-yl)-3-fluorophenyl)(2,6-diazaspiro[3.3]heptan-2-yl)methanone] | 3.14 nM | 129 nM | 2710 nM
Fc1cc(CN2CC3(CNC3)C2)ccc1-c1ccc2nccc(Nc3ccc4scnc4c3)c2c1 [Compound 292, N-(6-(4-((2,6-diazaspiro[3.3]heptan-2-yl)methyl)-2-fluorophenyl)quinolin-4-yl)benzo[d]thiazol-5-amine] | 3.67 nM | 159 nM | 1780 nM

Stronger by IC50 (RIPK3), values ahead:

IC50 (RIPK3) | SMILES | IC50 (Human HT-29 cells) | IC50 (Murine L929 cells)
0.102 nM | c1cc(Nc2ccc3scnc3c2)c2ccc(-c3ccc(OCCN4CCCCC4)cc3)cc2n1 [Compound 50, N-(7-(4-(2-(piperidin-1-yl)ethoxy)phenyl)quinolin-4-yl)benzo[d]thiazol-5-amine] | 708 nM | 320 nM
0.57 nM | Fc1cc(CN2CC3(CCOCC3)C2)ccc1-c1ccc2c(Nc3ccc4scnc4c3)ccnc2c1 [Compound 52, N-(7-(4-(7-oxa-2-azaspiro[3.5]nonan-2-ylmethyl)-2-fluorophenyl)quinolin-4-yl)benzo[d]thiazol-5-amine] | 505 nM | 323 nM
0.72 nM | O=C(c1ccc(-c2ccc3nccc(Nc4ccc5scnc5c4)c3c2)c(F)c1)N1CCCCC1 [Compound 53, (4-(4-(benzo[d]thiazol-5-ylamino)quinolin-6-yl)-3-fluorophenyl)(piperidin-1-yl)methanone] | 705 nM | 513 nM
0.308 nM | Fc1cc(CN2CCCC2)ccc1-c1ccc2c(Nc3ccc4scnc4c3)ccnc2c1 [Compound 54, N-(7-(2-fluoro-4-(pyrrolidin-1-ylmethyl)phenyl)quinolin-4-yl)benzo[d]thiazol-5-amine] | 630 nM | 201 nM
0.029 nM | O=C(c1ccc(-c2ccc3c(Nc4ccc5scnc5c4)ccnc3c2)c(F)c1)N1CCCCC1 [Compound 61, (4-(4-(benzo[d]thiazol-5-ylamino)quinolin-7-yl)-3-fluorophenyl)(piperidin-1-yl)methanone] | 94.2 nM | 93.3 nM
1.13 nM | O=C(c1ccc(-c2ccc3c(Nc4ccc5scnc5c4)ccnc3c2)c(F)c1)N1CC2(CNC2)C1 [Compound 284, (4-(4-(benzo[d]thiazol-5-ylamino)quinolin-7-yl)-3-fluorophenyl)(2,6-diazaspiro[3.3]heptan-2-yl)methanone] | 386 nM | 960 nM
